Measurements published in EP1857450A1, “Novel enantiomeric compounds for treatment of cardiac arrhythmias and methods of use” (Aryx Therapeutics, priority 1999, dated 2001).
Blank lines part the entries; values can stand above or below the compound they belong to.

Legend:
anesthetized rats = assay: Anti-arrhythmic activity in anesthetized rats (benzene/adrenaline challenge, EKG recording); assay type: in vivo, Male Sprague-Dawley rats; details: for protection against tachyarrhythmia (increased heart rate) produced by adrenaline: potency: drug administered from time 0 to time 120 minutes; for PR interval / QRS interval / QT interval / Heart rate (beats/minute) / Inhibition of tachycardia / Number of VPB / Inhibition of VPB: isolated enantiomer as compared to the respective racemate; for PR interval / QRS interval / QT interval: EKG; for Number of VPB / Inhibition of VPB: benzene/adrenaline challenge; for Inhibition of VPB: 4 mg/kg i.v. then 12 mg/kg/h for 2 hours; for activity against VPB at the end of the washout period: time 180 min; for inhibition of the formation of ventricular premature beats (VPB): whole period of drug administration (time 0 to 120 min); for time at which activity against VPB is lost: drug administration time 0 to 120 min
Method: Male Sprague-Dawley rats with body weights of 410 ± 30 g (Harlan Sprague Dawley Inc., Indianapolis, IN), were anesthetized with sodium pentobarbital (50 mg/kg i.p. - Butler Co., Columbus, OH). The skin from the neck area was removed and the jugular veins on both sides were cleared of connective tissue. Both jugular veins and the left carotid artery were isolated, and the latter tied up cranially with a surgical silk (ETHICON 4-0, Ethicon Inc., Australia). A plastic catheter ([…] 19ga, Vecton Dickinson, Sandy, UT), filled with a solution containing 10% sodium heparin (Elkins-Sinn Inc., Cherry Hill, NJ) in normal saline (100 U/ml sodium heparin), was introduced into the artery and fixed with surgical silk.
The catheter was connected to a pressure transducer (OHMEDA P23-XL, Ohmeda Medical Devices Division Inc., Madison, WI), filled with the same heparinized 0.9% NaCl solution, to register beat-to-beat arterial pressure. Needle electrodes were inserted s.c., and together with the pressure transducer, were joined to a GOULD TA 2000 recorder. Leads II, aVF and intraarterial blood pressure were monitored simultaneously throughout the experiments and recorded at certain intervals at 50 and 200 mm/sec paper speed.
The surgery was completed with an incision on the trachea where a short plastic tubing was placed and the animal was connected to a rodent-model ventilator (HARVARD Model 683, Harvard Apparatus, Inc., Holliston, MA). The animals were ventilated in a controlled way, depending on their spontaneous breathing frequency (55-75/min).
Drug administrations were carried out through i.v. catheters (TERUMO 24 GA*3/4", Terumo Medical Corp., Elkton, MD) inserted into both jugular veins. The left side was used for drug infusions by means of a syringe pump (SAGE INSTRUMENTS, Model 341B, Orion Res. Inc., Boston, MA), and the right side was used for adrenaline injections. The experiments were started after at least 15 minutes of stabilization. Benzene/adrenaline challenges were performed as follows: the respirator inlet was connected to a 50-ml bubbler half-full with benzene (Fisher Scientific, Fair Lawn, NJ) so that the inspired air was saturated with benzene vapor. The animal was ventilated with benzene vapor for two minutes. The tidal volume was typically 1 ml/100g of animal. During the last 30 seconds of benzene ventilation, 10 µg/kg adrenaline solution (in 0.9% NaCl) was injected into the right jugular vein. […] These arrhythmias could be elicited repeatedly. After three control VTs (at -30, -20 and -10 minutes), the test compounds were injected slowly during 30 seconds at a dose of 4 mg/kg i.v., immediately followed by a slow infusion of 12 mg/kg/h for 2 hours. The flow rate during the infusion period was 1 ml/h.
There were 5 rats per test compound and each animal served as its own control. The ability of the different drugs to suppress arrhythmias was tested against repeated benzene/adrenaline challenges at 5, 15, 30, 45, 60, 90, 120 (end of drug infusion), 135, 150, 165 and 180 minutes after the i.v. bolus injection. The amplitudes of the systolic arterial pressure and diastolic arterial pressure […] with the help of a pressure-amplitude calibration curve. Heart rate, number of ventricular complexes during the occurrence of VTs and VPBs, and certain ECG parameters (PR, QRS, QT durations and RR cycle lengths in msec) were also recorded and measured manually. At each time-point, 3-5 cycles were measured and the average values were entered into EXCEL Windows 97. The average and standard deviation for the five experimental animals per compound were calculated.

[1] = assay type: in vitro ADME; details: human
Method: Venous blood (60 ml) was collected in heparinized 15-ml Vacutainer® tubes from the forearm of five human volunteers. Each tube contained 1,000 units of heparin sodium salt. The blood was immediately centrifuged at 2,000 g for 10 minutes and the plasma was collected. Immediately after collection, the plasma was divided into 2-ml aliquots in borosilicate glass tubes (5-ml capacity) capped with a plastic stopper. The tubes were then equilibrated in a 37°C-water bath for at least 15 minutes before the test samples were added.
Stock solutions were prepared by dissolving 25 µmoles (about 18 mg) of each of the test compounds in 10 ml of deionized water. To each of the glass tubes containing 2 ml of fresh plasma, equilibrated at 37°C, was added 40 µl of the stock solutions (one test compound per tube). The plasma/stock solutions were then mixed. Samples (250 µl) were collected at time 0 (immediately after mixing test compounds in plasma) and then at 30, 60, 90, 120, 180, 240, and 300 minutes. The test tubes were capped, to avoid concentration due to evaporation, and left in the 37°C bath during the entire experiment. Each aliquot was immediately introduced into a 1.5-ml microfuge tube containing 20 µl of a 0.01% solution of diethyl paranitrophenylphosphate (paraoxon) in ethanol in order to inhibit esterase activity. The tubes were then capped and vortexed, then kept at -20°C until analysis. The samples were thawed and mixed with 750 µl of a 0.1 % solution of trifluoroacetic acid (TFA) in acetonitrile, vortexed for thorough mixing, and then centrifuged at 12,000 g for 15 minutes. The supernatant was collected for injection in the HPLC system.
The HPLC mobile phase consisted of acetonitrile and water containing 0.1% TFA and 400 mg/L benzyltriethylammonium chloride (BTEAC) in the following proportions and flow rates: 85% acetonitrile and 15% water at 2.0 ml/min. The detection wavelength was set at 242 nm, and the injected volume was 100 µL. The HPLC peaks were recorded, and the integrated values were plotted against time using the SIGMAPLOT software version 4.0 for WINDOWS. The resulting curves were fitted to a first-order exponential decay equation from which hydrolysis half-lives were calculated.

SMILES: CC[C@H](C)OC(=O)Cc1oc2ccccc2c1C(=O)c1cc(I)c(OCCN(CC)CC)c(I)c1 [R,S-2042]
activity against VPB of the racemate relative to the enantiomers (anesthetized rats; benzene vapors and adrenaline): even less active than either the R- or the S-isomer
protection against tachyarrhythmia (increased heart rate) produced by adrenaline: potency (anesthetized rats): the least potent and shortest acting

SMILES: CC[C@H](C)OC(=O)Cc1oc2ccccc2c1C(=O)c1cc(I)c(OCCN(CC)CC)c(I)c1 [ATI-2042]
protection against tachyarrhythmia (increased heart rate) produced by adrenaline: potency (anesthetized rats): very good protection against this tachyarrhythmia

Plasma half-life [1]: 11.7 h
SMILES: CCN(CC)CCOc1c(I)cc(C(=O)c2c(CC(=O)O[C@H](C)C(C)C)oc3ccccc23)cc1I [Compound R-2055, (R)-(3-Methyl)-2butyl 2-[3-(3,5-diiodo-4-(2-diethylaminoethyloxy)benzoyl)]benzo-furaneacetate]
duration of effect on tachycardia (anesthetized rats; adrenaline injection): longer-lasting effect than S-2055
PR interval (anesthetized rats): shorter
QRS interval (anesthetized rats): longer
QT interval (anesthetized rats): no change
Heart rate (beats/minute) (anesthetized rats; adrenaline injection): lower
Inhibition of tachycardia (anesthetized rats; adrenaline injection): longer
Number of VPB (anesthetized rats): lower
Inhibition of VPB (anesthetized rats): longer
activity against VPB at the end of the washout period (anesthetized rats): still retained part of its activity
inhibition of the formation of ventricular premature beats (VPB) (anesthetized rats; benzene vapors and adrenaline): totally inhibited the formation of ventricular premature beats

SMILES: CCN(CC)CCOc1c(I)cc(C(=O)c2c(CC(=O)OC(C)C(C)C)oc3ccccc23)cc1I (stereo not drawn) [ATI-2055]
protection against tachyarrhythmia (increased heart rate) produced by adrenaline: potency (anesthetized rats): inhibits the tachycardia

Plasma half-life [1]: 5.0 h
SMILES: CC[C@@H](C)OC(=O)Cc1oc2ccccc2c1C(=O)c1cc(I)c(OCCN(CC)CC)c(I)c1 [Compound R-2042, (R)-sec-Butyl 2-[3-(3,5-diiodo-4-(2-diethylaminoethyloxy)benzoyl)]benzofurane-acetate]
time at which activity against VPB is lost (anesthetized rats; benzene vapors and adrenaline): ~100 min
PR interval (anesthetized rats): shorter
QRS interval (anesthetized rats): no change
QT interval (anesthetized rats): no change
Heart rate (beats/minute) (anesthetized rats; adrenaline injection): lower
Inhibition of tachycardia (anesthetized rats; adrenaline injection): longer
Number of VPB (anesthetized rats): lower
Inhibition of VPB (anesthetized rats): longer
activity against VPB at the end of the washout period (anesthetized rats): completely inactive

Plasma half-life [1]: 8.8 h
SMILES: CCN(CC)CCOc1c(I)cc(C(=O)c2c(CC(=O)O[C@@H](C)C(C)C)oc3ccccc23)cc1I [Compound S-2055, (S) - (3 - Methyl) - 2 butyl 2-[3-(3,5-diiodo-4-(2-diethylaminoethyloacy)benzoyl)]benzo-furaneacetate]
time at which activity against VPB is lost (anesthetized rats; benzene vapors and adrenaline): ~40 min
PR interval (anesthetized rats): shorter
QRS interval (anesthetized rats): longer
QT interval (anesthetized rats): no change
Heart rate (beats/minute) (anesthetized rats; adrenaline injection): lower
Inhibition of tachycardia (anesthetized rats; adrenaline injection): longer
Number of VPB (anesthetized rats): lower
Inhibition of VPB (anesthetized rats): longer
activity against VPB at the end of the washout period (anesthetized rats): completely inactive

SMILES: CC[C@H](C)OC(=O)Cc1oc2ccccc2c1C(=O)c1cc(I)c(OCCN(CC)CC)c(I)c1 [Compound S-2042, (S)-sec-Butyl 2-[3-(3,5-diiodo-4-(2-diethylaminoethytoxy)benzoyl)]benzofurane-acetate]
Plasma half-life [1]: 7.3 h
protection against tachyarrhythmia (increased heart rate) produced by adrenaline: potency (anesthetized rats): more potent and longer acting then R-2042
PR interval (anesthetized rats): longer
QRS interval (anesthetized rats): longer
QT interval (anesthetized rats): longer
Heart rate (beats/minute) (anesthetized rats; adrenaline injection): lower
Inhibition of tachycardia (anesthetized rats; adrenaline injection): longer
Number of VPB (anesthetized rats): lower
Inhibition of VPB (anesthetized rats): longer
effects on the PR segment of the EKG recording (Class-IV activity): potency (anesthetized rats; rat, in vivo): much more potent than R-2042 and the racemate R,S-2042
effects on the QT segment of the EKG recording (Class-III properties): potency (anesthetized rats; rat, in vivo): the most potent and the longest acting
activity against VPB at the end of the washout period (anesthetized rats): still retained part of its activity
inhibition of the formation of ventricular premature beats (VPB) (anesthetized rats; benzene vapors and adrenaline): totally inhibited the formation of ventricular premature beats
